{
  "source": "paper PMC4828713",
  "about": "“New potential binding determinant for hERG channel inhibitors” (Scientific Reports, 2016)",
  "key": {"Y652A-hERG": {"target": "Y652A-hERG (Homo sapiens, UniProt Q12809, Y652A)", "conditions": "pH 7.4", "description": "(§1) For hERG measurements, the oocytes were clamped at a holding potential of −100 mV and depolarized to +20 mV allowing activation and inactivation. […] Channel block was estimated from tail current inhibition."}, "[1]": {"target": "wild type hERG (WT) channels (Homo sapiens, UniProt Q12809)", "conditions": "pH 7.4", "description": "as §1"}},
  "data": [
    {"compound": "O=C(CCCN1CCC(O)(c2ccc(Cl)cc2)CC1)c1ccc(F)cc1", "note": "[Haloperidol, haloperidol]", "values": [
      {"measurement": "Y652A-hERG nH (hill coefficient)", "setting": "Y652A-hERG", "value": "1 ± 0.04"},
      {"measurement": "Y652A-hERG ∆IC50", "setting": "Y652A-hERG", "value": 31.4},
      {"measurement": "WT nH (hill coefficient)", "setting": "[1]", "value": "1.3 ± 0.1"}
    ]}
  ]
}
